Like-named read-outs stand apart in the source and are kept apart here.
How the values were obtained:
xanthine oxidase [1] = molecular target: T1, xanthine oxidase (Bos taurus, UniProt P80457); test: Kinetics of xanthine oxidase inhibition; type: biochemical; details: Lineweaver-Burk double reciprocal plots, xanthine as substrate
xanthine oxidase [2] = molecular target: T1, xanthine oxidase; test: Xanthine oxidase inhibitory assay; type: biochemical
xanthine oxidase [3] = molecular target: T1, xanthine oxidase; details: cited from earlier work; for inhibition of the xanthine oxidase enzyme (in words): ref Mostafa et al., 2007

T1 sequence (P80457 whole entry): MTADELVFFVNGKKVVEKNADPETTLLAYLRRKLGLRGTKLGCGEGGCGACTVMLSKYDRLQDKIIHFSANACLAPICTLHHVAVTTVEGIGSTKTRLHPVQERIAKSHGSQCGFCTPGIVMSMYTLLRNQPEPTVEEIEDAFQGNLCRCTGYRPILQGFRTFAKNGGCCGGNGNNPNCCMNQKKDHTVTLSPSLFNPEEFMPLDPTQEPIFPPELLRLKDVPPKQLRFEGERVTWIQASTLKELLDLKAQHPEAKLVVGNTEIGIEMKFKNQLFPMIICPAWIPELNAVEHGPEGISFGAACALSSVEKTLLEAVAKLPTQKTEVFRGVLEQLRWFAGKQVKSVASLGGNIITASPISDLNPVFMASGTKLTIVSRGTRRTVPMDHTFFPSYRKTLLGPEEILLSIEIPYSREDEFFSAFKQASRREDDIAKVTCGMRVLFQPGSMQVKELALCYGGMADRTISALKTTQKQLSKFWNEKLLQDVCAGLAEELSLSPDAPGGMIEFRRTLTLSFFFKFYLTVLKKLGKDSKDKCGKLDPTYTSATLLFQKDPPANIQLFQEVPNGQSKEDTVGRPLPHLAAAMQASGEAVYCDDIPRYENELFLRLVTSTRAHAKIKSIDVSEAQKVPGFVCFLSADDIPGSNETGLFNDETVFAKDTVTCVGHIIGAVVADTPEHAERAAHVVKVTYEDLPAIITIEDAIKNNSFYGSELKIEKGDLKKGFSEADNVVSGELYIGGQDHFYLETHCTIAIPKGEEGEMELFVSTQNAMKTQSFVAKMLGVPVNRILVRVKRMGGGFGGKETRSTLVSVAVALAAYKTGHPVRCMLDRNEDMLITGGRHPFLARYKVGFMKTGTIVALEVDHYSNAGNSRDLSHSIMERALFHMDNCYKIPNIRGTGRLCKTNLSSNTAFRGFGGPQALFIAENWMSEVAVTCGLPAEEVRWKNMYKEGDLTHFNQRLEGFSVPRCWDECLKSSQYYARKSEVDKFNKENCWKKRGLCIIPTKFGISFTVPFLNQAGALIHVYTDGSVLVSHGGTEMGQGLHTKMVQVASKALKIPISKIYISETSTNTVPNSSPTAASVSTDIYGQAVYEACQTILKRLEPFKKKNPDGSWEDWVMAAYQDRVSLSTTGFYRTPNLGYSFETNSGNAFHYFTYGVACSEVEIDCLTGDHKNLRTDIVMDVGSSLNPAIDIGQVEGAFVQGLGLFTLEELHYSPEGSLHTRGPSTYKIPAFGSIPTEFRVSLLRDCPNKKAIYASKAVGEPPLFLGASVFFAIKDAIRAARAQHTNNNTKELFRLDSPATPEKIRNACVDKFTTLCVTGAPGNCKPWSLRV

SMILES: Oc1ncnc2[nH]ncc12 [Allopurinol]
- type of inhibition (xanthine oxidase [1]): competitive

SMILES: COc1ccc(/C=C/C(=O)O)cc1 [Compound 3, trans-4-methoxycinnamic acid]
- IC50 (xanthine oxidase [2]): 26.3 ± 3.36 µM
- type of inhibition (xanthine oxidase [1]): competitive

SMILES: O=C(O)/C=C/c1ccc(O)cc1 [Compound 5, p-coumaric acid]
- IC50 (xanthine oxidase [2]): 23.3 ± 1.88 µM
- type of inhibition (xanthine oxidase [1]): competitive

SMILES: COc1ccc(CCO[C@@H]2O[C@H](CO[C@@H]3OC[C@H](O)[C@H](O)[C@H]3O)[C@@H](OC(=O)/C=C/c3ccc(O)c(OC)c3)[C@H](O[C@@H]3O[C@@H](C)[C@H](O)[C@@H](O)[C@H]3O)[C@H]2O)cc1O [angoroside C]
- inhibition of the xanthine oxidase enzyme (in words) (xanthine oxidase [3]): moderate inhibitors

SMILES: O=c1cc(-c2ccc(O)cc2)oc2cc(O)cc(O)c12 [apigenin]
- type of inhibition (xanthine oxidase [3]; ref Lin et al., 2002): competitive

SMILES: O=C(O)/C=C/c1ccc(O)c(O)c1 [caffeic acid]
- IC50 (xanthine oxidase [3]; ref Nguyen et al., 2006): 85.4 µM
- inhibition type (xanthine oxidase [3]; ref Nguyen et al., 2006): competitive

SMILES: O=c1c(-c2ccc(O)cc2)coc2cc(O)cc(O)c12 [genistein]
- type of inhibition (xanthine oxidase [3]; ref Lin et al., 2002): competitive

SMILES: COc1ccc(CCO[C@@H]2O[C@H](CO)[C@@H](OC(=O)/C=C/c3ccc(O)c(OC)c3)[C@H](O[C@@H]3O[C@@H](C)[C@H](O)[C@@H](O)[C@H]3O[C@@H]3O[C@H](CO)[C@@H](O)[C@H](O)[C@H]3O)[C@H]2O)cc1O [incanoside D]
- inhibition of the xanthine oxidase enzyme (in words) (xanthine oxidase [3]): moderate inhibitors

SMILES: O=c1cc(-c2ccc(O)c(O)c2)oc2cc(O)cc(O)c12 [luteolin]
- Ki (xanthine oxidase [3]; read-out: inhibition constant (Ki), ref Yan et al., 2013): 2.38 µM
- IC50 (xanthine oxidase [3]; ref Yan et al., 2013): 4.79 µM
- type of inhibition (xanthine oxidase [3]; ref Yan et al., 2013): competitive

SMILES: COC(=O)/C=C/c1ccc(O)c(O)c1 [methyl caffeate]
- IC50 (xanthine oxidase [3]; ref Nguyen et al., 2006): 12.3 µM
- inhibition type (xanthine oxidase [3]; ref Nguyen et al., 2006): competitive

SMILES: O=c1c(O)c(-c2cc(O)c(O)c(O)c2)oc2cc(O)cc(O)c12 [myricetin]
- type of inhibition (xanthine oxidase [3]; ref Lin et al., 2002): competitive

SMILES: O=c1c(O)c(-c2ccc(O)c(O)c2)oc2cc(O)cc(O)c12 [quercetin]
- type of inhibition (xanthine oxidase [3]; ref Lin et al., 2002): competitive
